Holding throughout (format): physicochemical
The nature of series [1]: Hygroscopicity experiment by Dynamic Vapor Sorption (DVS). Particulars: 25° C.; for hygroscopicity class: Chinese Pharmacopoeia 2015 definition, 80% RH; for weight gain: DVS, at 80% RH. The method, then: Dynamic Vapor Sorption (DVS) is measured via a SMS (Surface Measurement Systems Ltd.) intrinsic DVS. Its control software is DVS-Intrinsic control software, and its analysis software is DVS-Intrinsic analysis software. Typical Parameters for DVS test are as follows:
Gas and flow rate: N2, 200 mL/min
RH range: 0% RH to 95% RH
14.3 mg of Form CS1 was placed in a DVS instrument and underwent a cycle of 0%-95%-0% RH. The DVS curve is substantially as depicted in FIG. 12. A weight gain of 0.08% is observed at 80% RH.
8.6 mg of Form CS2 was placed in a DVS instrument and underwent a cycle of 40%-95%-0%-95% RH. A weight gain of 0.56% is observed at 80% RH.

The nature of series [2]: Stability assessment under storage (XRPD for crystalline form, HPLC for chemical purity). The settings on record: for stability (overall conclusion): 25° C./60% RH and 40° C./75% RH for 1 month; for Purity / Initial purity: HPLC; for Initial purity: initial sample before storage; for Crystalline form: XRPD. From the text: X-ray powder diffraction pattern in the present disclosure was acquired by a Panalytical Empyrean X-ray powder diffractometer. The parameters of the X-ray powder diffraction method of the present disclosure were as follows:
High Performance Liquid Chromatography (HPLC) data in the present disclosure are collected from Agilent 1100 with diode array detector (DAD). The HPLC method parameters for purity test in the present disclosure are as follows:
1. Column: Waters Xbridge C18 150×4.6 mm, 5 μm
2. Mobile Phase: A: 0.1% TFA in H2O • B: 0.1% TFA in Acetonitrile • Gradient: […]
4. Injection Volume: 10 μL
5. Detection wavelength: 230 nm
6. Column Temperature: 40° C.
7. Diluent: 50% Acetonitrile
Form CS1 in the present disclosure was stored under different conditions of 25° C./60% RH and 40° C./75% RH for 1 month. Samples were taken at the end of 1 month. XRPD and HPLC were used to test the crystalline form and chemical purity. The XRPD overlay is shown in FIG. 14 (Above is the initial sample, in the middle is the sample placed under 25° C./60% RH for 1 month, at the bottom is the sample placed under 40° C./75% RH for 1 month).
Form CS2 in the present disclosure was stored under different conditions of 25° C./60% RH and 40° C./75% RH for 1 month. Samples were taken at the end of 1 month. XRPD and HPLC were used to test the crystalline form and chemical purity. The experimental results are summarized in Table 9. the XRPD overlay is shown in FIG. 15 (Above is the initial sample, in the middle is the sample placed under 25° C./60% RH for 1 month, at the bottom is the sample placed under 40° C./75% RH for 1 month).

The nature of series [3]: Morphology test by polarized light microscopy (PLM). The settings on record: PLM image. The method, then: Form CS1 and Form CS2 in the present disclosure were tested by polarized light microscopy, and the results were depicted in FIG. 16 and FIG. 17. The morphologies of Form CS1 and Form CS2 are needle and block, respectively. Both forms disperse well and have little agglomeration. It can be seen from the PLM images that the morphologies of Form CS1 and Form CS2 in the present disclosure are suitable for the development of drug product.

For `COc1cc2c(cc1OC)[C@H]1C[C@@H](OC(=O)[C@@H](N)C(C)C)[C@H](CC(C)C)CN1CC2` [Form CS1, (S)-2-amino-3-methyl-butyric acid (2R,3R,11bR)-3-isobutyl-9,10-dimethoxy-1,3,4 6,7,11b-hexahydro-2H-pyrido[2,1-a]isoquinolin-2-yl ester], in series [1], the hygroscopicity class result is given as “almost non hygroscopic” and the weight gain amounted to 0.08%. Besides, in series [2], the “stability (overall conclusion)” value is “good stability” and the Initial purity was 98.02%. In addition, in series [2] (after 25° C./60% RH (1 month)), the Purity is on record as 98.21% and the Crystalline form entry was “unchanged”. Further, in series [2] (after 40° C./75% RH (1 month)), the Purity was 97.76% and the Crystalline form result was “unchanged”. The morphology result in series [3] is recorded as “needle”.

Take `COc1cc2c(cc1OC)[C@H]1C[C@@H](OC(=O)[C@@H](N)C(C)C)[C@H](CC(C)C)CN1CC2` [Form CS2, (S)-2-amino-3-methyl-butyric acid (2R,3R,11bR)-3-isobutyl-9,10-dimethoxy-1,3,4 6,7,11b-hexahydro-2H-pyrido[2,1-a]isoquinolin-2-yl ester]: in series [1], the hygroscopicity class result is reported as “slightly hygroscopic” and the weight gain stood at 0.56%. Besides, in series [2], the “stability (overall conclusion)” value was “good stability” and the Initial purity is 98.34%. In addition, in series [2] (after 25° C./60% RH (1 month)), the Purity was found to be 98.60% and the Crystalline form entry is “unchanged”. In series [2] (after 40° C./75% RH (1 month)), the Purity is recorded as 97.38% and the Crystalline form result is “unchanged”. The morphology entry in series [3] is “block”.

The values above are taken from patent publication US10442800B2, “Crystal forms of NBI-98854, preparation method and use thereof” (Crystal Pharmaceutical (Suzhou) Co., Ltd., priority 2016, dated 2019).
